The subject of experiment [1] is cord blood mononuclear cells (CBMCs). The experiment can be described thus: Macrophage lineage in CBMCs. In kind it is cell-based, human. Particulars: 100 μM and LPS 50 ng/mL, 72 h (3d), HLA-DRlow/CD163high. The text has this: N=3, *P<0.05, Two-way ANOVA was used for statistical analysis.
The next experiment has as its system hPBMCs. Briefly: hPBMCs treated 7 days with AVR-48, LPS, MPLA, Influenza-A peptides, flow cytometry. Format: cell-based, human.
Experiment [2] has as its system preterm lamb model of BPD. Briefly: Respiratory system mechanics (ventilator, forced oscillation technique, methacholine challenge). Format: in vivo. The method, then:
Respiratory system mechanics assessments with methacholine challenge. The respiratory system mechanics were assessed for the early-stage study (DOL1-10) and late-stage study (DOL10-90). For the early-stage research, the Drager ventilator recorded respiratory system mechanics every 5 min while the PT lambs were intubated and mechanically ventilated. The parameters were dynamic lung compliance and resistance. The inventors averaged the parameters every 12 h.
For the early and late-stage studies, after the lambs were extubated and transitioned to noninvasive respiratory support and spontaneously breathing (DOL7-10) and thereafter to DOL90, the inventors used forced oscillometry (FOT; model Tremoflo N-100; Thorasys, Thoracic Medical Systems Inc., Montreal, QC, Canada), with a filter (Humid-Vent Filter Small A, Teleflex Medical, Ireland). This instrument, validated in term and PT human infants,^18 allows the measurement of respiratory system mechanics in uncooperative subjects (not intubated and breathing spontaneously) by applying a pressure stimulus at the airway opening and measuring the resulting flow. The inventors used a small canine mask (product number 93815026; Midmark Corp., Versailles, OH). The FOT device was calibrated daily, and the use followed the manufacturer's instructions. The inventors used the standard TremoFlo-supplied software without modifications. The software enables post hoc inspection of the measurement time course. As recommended by the manufacturer, any measurement with a leak was discarded. FOT measurements were made for the FPT lambs at 1 month corrected postnatal age (1 moC; DOL60) and 2 moC (DOL90). The comparison time points for term reference lambs were matched for corrected postnatal age.
FOT analysis was done on lambs that stood prone, supported by a veterinary sling. The lambs were given Lorazepam (0.1 mg/Kg, intramuscularly) to keep them calm. The mask was placed over their muzzle and held in place by a tender. The lambs were habituated to the sling and mask before testing was done. FOT was used to measure respiratory system resistance and reactance in four steps: (1) baseline, (2) bronchodilator (albuterol), (3) bronchoconstrictor (methacholine challenge), and (4) bronchodilator (albuterol). The inventors used an Aeroneb Pro nebulizer (Aerogen Ltd, Galway, Ireland) connected to the mask. The inventors repeatedly measured tissue O2 saturation by pulse oximetry, heart rate, and blood pressure. After the baseline measurement, the inventors nebulized albuterol (1.5 mL; Hi-Tech Pharmacal Co., Amityville, NY) to dilate the airways in each lamb before methacholine challenge. Airway responsiveness was assessed during stepwise increases in nebulized methacholine (Provocholine; Pancap, Inc., Markham, Ontario, Canada), according to the ATS 1999 guideline^19 and reported by the inventors for FPT and term reference lambs.^14 Methacholine concentration was doubled for each step, starting from 0.06 mg/mL up to a maximum concentration of 4.00 mg/mL. At the end of the methacholine challenge steps, 1.5 mL of albuterol was nebulized to dilate the airways. All lambs tolerated the procedure, which took 45-60 min.

The subject of the next experiment is TLR4 pathway. The experiment can be described thus: Western blot of TLR4 pathway proteins in hPBMC and CBMCs. The note with it: 100 μM, alone and with LPS 50 ng/mL. Format: cell-based, human. As to the method:
FIGS. 14A to 14D show Western Blot analysis for quantification of TLR4 pathway proteins and densitometry of (FIGS. 14A-FIG. 14C) using adult hPBMC and (FIG. 14D) CBMCs. After treatment with AVR-48 [100 μM], LPS [50 ng/mL], and in combination indicates AVR-48 activates TLR4 pathway via increasing phospho-MyD88 and phospho-TTRAP, with no activation via TRAM, and inhibiting the phosphorylation of the NF-kB pathway.
CBMCs were treated with either AVR-123 [100 μM], LPS [50 ng/mL] or AVR-123+LPS for 24 h. […] (FIG. 23G) AVR-123 decreases phosphorylated NFkB alone and when combined with LPS in CBMCs via western blot analysis. N=3, One-way ANOVA.
On the technique in general: In western blotting, separated proteins are transferred to a membrane and probed.

Where [3] appears, read: FOT, d90, FPT lambs vs FPT vehicle.
Where [4] appears, read: ventilator-measured, invasive mechanical ventilation DOL1-7, PT lambs vs vehicle.

Each structure is given as a SMILES string. Entries after “also recorded” stand apart in the source; their conditions may differ.

With `CC(=O)NC1C(Oc2ccc([N+](=O)[O-])cc2)OC(CO)C(O)C1O` (stereo not shown) [AVR-48], in experiment [1], the macrophage lineage result is given as “preference for intermediate macrophage lineage”. For the same compound, the “TEMRE effector T-cell production” value with hPBMCs (compared to MPLA) is recorded as “stimulated more”. Further, the “CD8+ IFN-g+ T-memory and helper cell recruitment” value with hPBMCs (in the presence of influenza-A peptide) was “perturbated”. Further, in the experiment with hPBMCs (vs MPLA), the “CD4+ T-cells production” value is “outperformed MPLA” and the “CD27− T-cells production” value is “outperformed MPLA”. Moreover, the “resistance and reactance of the respiratory system” value in experiment [2] (FOT, DOL 60, late-stage study) is given as “No significant difference”. Besides, in experiment [2] (setting [3]), the “baseline reactance at 5 and 10 Hz (upper and large airways)” value is given as “significantly less negative”; the “baseline resistance at 5 Hz (upper and large airways)” value is given as “significantly lower”; the “reactance at 5 and 10 Hz after methacholine challenge” value is given as “significantly less negative”; the “reactance at 7-20 Hz after albuterol nebulization” value is on record as “less negative reactance”. In addition, in experiment [2] (setting [3]), the “resistance at 5 Hz after methacholine challenge” value is “significantly lower resistance” and the “resistance at 7-20 Hz after albuterol nebulization” value is on record as “significantly lower resistance”. Besides, the “respiratory system resistance in large (5 Hz), middle (7-20 Hz), and small (41 Hz) airways” value in experiment [2] (FOT, end of early-stage study (DOL10), PT lambs 3.0 mg/kg vs vehicle) is listed as “significantly lower resistance”. In addition, the “airway reactance AX (area under the curve below zero)” value in experiment [2] (FOT, end of early-stage study (DOL10), PT lambs vs vehicle) is given as “significantly lower”. Moreover, in experiment [2] (setting [4]), the dynamic lung compliance result is “No statistically significant differences; also recorded: consistently lower” and the lung resistance result was “No statistically significant differences”. Also, in the experiment with TLR4 pathway, the “activation via TRAM” value is “no activation”, the phospho-MyD88 result is recorded as “increasing” and the phospho-TTRAP result is reported as “increasing”.
